Data reported in US10085955B2, “Methods and compositions for treatment of demyelinating diseases” (Pathologica LLC, priority 2013, dated 2018).
Entries after “also recorded” stand apart in the source; their conditions may differ.

Key:
[1] = tested on: MOG-induced experimental autoimmune encephalomyelitis (EAE); assay: First MOG EAE protocol (murine multiple sclerosis model); format: in vivo, C57BL/6 mice
Excerpt: An experimental murine model of multiple sclerosis employing a myelin oligodendrocyte glycoprotein (MOG) peptide to induce experimental autoimmune encephalomyelitis (EAE) was employed to determine the efficacy of MGBG in preventing and treating that disease. Because of its many similarities to MS, EAE is commonly used to study pathogenesis of autoimmunity, CNS inflammation, demyelination, cell trafficking, and tolerance induction. EAE is characterized by paralysis (in some models the paralysis is remitting-relapsing), CNS inflammation and demyelination. EAE is mediated primarily by dendritic cells, myelin-specific T cells (e.g. Th1 and Th17), and M1 macrophages. B cells may also play a role in some models of EAE. Body weight also tracks disease progression. EAE is induced in C57BL/6 mice by immunization with MOG35-55 or MOG1-125 in CFA emulsion followed by administration of pertussis toxin (PTX) in PBS. The emulsion provides antigen which initiates expansion and differentiation of MOG-specific autoimmune T cells. PTX enhances EAE development by providing additional adjuvant and facilitating entrance of autoimmune T cells into the CNS.
Chronic EAE develops in C57BL/6 mice after immunization with an emulsion of MOG35-55/CFA or MOG1-125/CFA followed by injection of pertussis toxin. This model is used to test the potential of compounds to prevent or mitigate EAE disease. It can be run with the compound dosed from the time of immunization (prophylactic treatment), or with the aim of reversing the course of disease and facilitating recovery by dosing the compound from the time of EAE onset (therapeutic treatment). The model uses female C57BL/6 mice of age 10 to 14 weeks at the start of the study. Typically, EAE develops 8-18 days after immunization. EAE development is usually followed for 4 weeks (28 days) after immunization.
In prophylactic studies, treatment begins before disease onset, at the time of immunization and group assignment. Mice are assigned to treatment groups in a balanced manner to achieve groups with similar distributions of body weights. Prophylactic studies assess if treatment will affect the course of disease both before and after the first clinical signs of EAE. To compensate for the stress of treatment in prophylactic treatment studies and achieve the target disease severity, EAE may be induced with a higher dose of pertussis toxin than used in therapeutic studies. The dose of pertussis toxin is based on expected stress due to dosing (route, frequency, and formulation of vehicle).
Clinically, EAE progression is scored on a scale of 0 to 5, wherein each score represents the following clinical observations:
Inflammatory foci of approximately 20 cells were counted in each H&E stained section. When inflammatory infiltrates consisted of more than 20 cells, an estimate was made of how many foci of 20 cells were present.
The demyelination score represents an estimate of demyelinated area for each section as follows:
Unless otherwise noted, statistical analysis was performed as follows: disease incidence compared using chi-square test; mean day of EAE onset, change in body weight, and number of apoptotic cells compared using 2-tailed Student's t-test; median day of EAE onset compared using Wilcoxon's survival test; mean maximum score (MMS), end score, and demyelination scores (LFB and H&E) compared using Wilcoxon's non-parametric test.
Ten week old female C57BL/6 mice weighing 18-23 g (Taconic Farms) were divided into four groups: mock immunized (n=3) and three MOG-immunized groups receiving MGBG at 30 mpk BID (as the di-HCl monohydrate with a correction factor of 1.49), fingolimod (FTY720) at 3 mpk QD with a second mock vehicle dose, or 0.9% saline vehicle BID (n=12 each). […]

CNS-infiltrating cells = assay: Second MOG EAE protocol, flow cytometric analysis of CNS-infiltrating cells; format: in vivo, C57BL/6 mice; settings: second study
Procedure: A second EAE experiment was run substantially as disclosed above, except that fingolimod was dosed at 1 mpk QD, and the pertussis toxin was administered at 165 ng/dose for both injections.
In addition to clinical scoring, flow cytometric analysis was performed on CNS-infiltrating cells from 6 mice in each of the vehicle-, fingolimod- and MGBG-treated groups, as well as in all three mice from the mock-immunized (disease-free) group.
On Day 28, the brain and spinal cord tissue (from 6 of 12 mice from each of the MOG-immunized groups; and from all 3 mice from the mock-immunized group) in the second MOG EAE study were […] infiltrating cells were isolated by Percoll gradient. After isolating infiltrating cells from each mouse separately, cells were placed in culture with phorbol myristate acetate (PMA, 50 ng/mL), ionomycin (0.5 μg/mL) and brefeldin (1 μg/mL) and incubated for 4-5 hours. The cells were then washed and stained for flow cytometric analysis, as specified below. The following analyses were performed (Becton Dickinson FACScan):
Anti-CD4-Cy-5/anti-IL-17A-PE/anti-IFNγ-FITC (Th1/Th17 cells)
Anti-CD4-Cy-5/anti-CD11c-PE/anti-CD45.2-FITC (infiltrating dendritic cells)
Anti-CD11b-Cy-5/anti-IL-12-PE/anti-CD45.2-FITC (M1 macrophages)
Anti-CD11b-Cy-5/anti-CD206-PE/anti-IL-10-FITC (M2 macrophages)
The number of cells positive for relevant stains and stain combinations was computed both as a percentage of the analyzed cells and as the average number of cells per mouse for each group.

[2] = Day 28, raw numbers of cells, fingolimod 1 mg/kg QD, MGBG 30 mg/kg BID
[3] = Day 28, fingolimod 1 mg/kg QD, MGBG 30 mg/kg BID

**Q.** For `CC(/C=N/NC(=N)N)=N\NC(=N)N` [MGBG, 1,1′ [methylethanediylidene]dinitrilodiguanidine], which “mean clinical score (scale 0 to 5)” value ([1]; first 28-day study, MGBG 30 mpk BID, fingolimod 3 mpk QD, throughout/duration of experiment) is on record?
**A.** Its value is “below 1”.

**Q.** What about the “body weight, mean percent of baseline (study start)” value ([1]; first study, day 11) of the same compound?
**A.** Its value is ~115%.

**Q.** And the “body weight, mean percent of baseline (study start)” value ([1]; first study, day 24)?
**A.** Its value is “about 108%”.

**Q.** And the “spinal cord histopathology (neuroinflammation, demyelination, apoptosis)” value ([1]; first study, day 28)?
**A.** Its value is “reduces histopathological signs of MS”.

**Q.** And the “day first clinical signs became evident” value ([1]; first study, MGBG 30 mpk BID (vehicle day 10))?
**A.** The value was 15 days.

**Q.** What about the “CD4+ IFNy+ cells” value (CNS-infiltrating cells; [2]) of the same compound?
**A.** Its value is 20.40 +/− 10^3.

**Q.** What about the “CD4+ IL-17A+ cells” value (CNS-infiltrating cells; [2]) of the same compound?
**A.** Its value is 23.55 +/− 10^3.

**Q.** And the “CD4+ cells” value (CNS-infiltrating cells; [2])?
**A.** Its value is 152.11 +/− 10^3.

**Q.** And the “CD11b+ CD206+ cells” value (CNS-infiltrating cells; [2])?
**A.** Its value is 1.92 +/− 10^3.

**Q.** What about the “CD11b+ IL10+ cells” value (CNS-infiltrating cells; [2]) of the same compound?
**A.** Its value is 3.37 +/− 10^3.

**Q.** What about the “CD11b+ cells” value (CNS-infiltrating cells; [2]) of the same compound?
**A.** Its value is 137.88 +/− 10^3.

**Q.** And the “CD45.2 high CD4− CD11c+ cells” value (CNS-infiltrating cells; [2])?
**A.** Its value is 11.90 +/− 10^3.

**Q.** What about the “CD45.2 high CD11b− IL12+ cells” value (CNS-infiltrating cells; [2]) of the same compound?
**A.** The value was 0.21 +/− 10^3.

**Q.** And the “IL12+ cells” value (CNS-infiltrating cells; [2])?
**A.** The value was 0.89 +/− 10^3.

**Q.** And the “# of IL12+ cells (10^3)” value (CNS-infiltrating cells; [3])?
**A.** The value was 0.89 +/− 10^3.

**Q.** And the “% CD4+ IFNγ+ cells” value (CNS-infiltrating cells; [3])?
**A.** Its value is 15.85%.

**Q.** What about the “% CD11c+ of CD45.2 high CD4− cells” value (CNS-infiltrating cells; [3]) of the same compound?
**A.** The value was 7.21%.

**Q.** And the “% CD206+ of CD11b+ cells” value (CNS-infiltrating cells; [3])?
**A.** Its value is 1.39%.

**Q.** And the “% IL10+ of CD11b+ cells” value (CNS-infiltrating cells; [3])?
**A.** Its value is 2.37%.

**Q.** And the “% IL12+ of CD45.2 high CD11b− cells” value (CNS-infiltrating cells; [3])?
**A.** The value was 0.06%.

**Q.** What about the “% IL-17A+ cells of CD4+ cells” value (CNS-infiltrating cells; [3]) of the same compound?
**A.** Its value is 15.24%.

**Q.** What about the “% of CD4+ cells” value (CNS-infiltrating cells; [3]) of the same compound?
**A.** Its value is 28.50%.

**Q.** And the “% of CD11b+ cells” value (CNS-infiltrating cells; [3])?
**A.** Its value is 27.86%.

**Q.** And the “CNS CD11c+ dendritic cells” value (CNS-infiltrating cells; FIG. 8 A)?
**A.** Its value is “reduces; also recorded: significantly reduced relative and absolute number”.

**Q.** And the “IL12+ dendritic cells / IL-12-producing cells” value (CNS-infiltrating cells; FIG. 8 B)?
**A.** The value was “reduces; also recorded: significantly reduced number”.

**Q.** And the Th1 (CNS-infiltrating cells; FIG. 9 A)?
**A.** The Th1 was “reduces”.

**Q.** And the M1 macrophages (CNS-infiltrating cells; FIG. 9 B)?
**A.** Its M1 macrophages is “reduces”.
